From US4968708A, “Imidazo[2,1-B]benzothiazole compounds and antiulcer compositions containing the same” (priority 1988, dated 1990)

How the values were obtained:
[1] = system: aspirin-induced ulcer; experiment: Antiulcer activity against aspirin-induced ulcer model; format: in vivo, Wistar strain male rats; conditions: rats, 100 mg/kg p.o. 30 min before aspirin 200 mg/kg p.o.; for inhibition in vivo at 100 mg/kg: Rattus norvegicus, po, 7 h, read-out: Aspirin Induced Ulcer Inhibition Rate; for Aspirin Induced Ulcer Ulcer Index: stomach excised 7 h after aspirin
Procedure: Thirty minutes after administration, aspirin was further orally administered at a dose of 200 mg/kg. Seven hours after administration of aspirin, the stomach was excised under ethereal anesthesia and spotted and linear erosion and a long diameter of any ulcer were microscopically measured to determine an ulcer index and an inhibition rate.
(§1) In the control group, a 5% gum arabic aqueous solution was orally administered at a dose of 5 ml/kg.

[2] = system: water-immersion stress ulcer; experiment: Antiulcer activity against water-immersion stress ulcer; format: in vivo, Wistar strain male rats; conditions: rats; for inhibition in vivo at 100 mg/kg: Rattus norvegicus, po, 6 h, read-out: Water-Immersion Stress Ulcer Inhibition Rate; for Water-Immersion Stress Ulcer Ulcer Index: 100 mg/kg p.o. 30 min before 6 h water immersion at 22°±1° C.
Procedure: A suspension of each test compound in a 5% gum arabic aqueous solution was orally given to Wistar strain male rats (at the age of 7 to 8 weeks, weighing 180 to 250 g; 7-9 rats in the group administered with the test compound; 10-16 rats in the control group) fasted for 24 hours at a dose of 100 mg of the test compound/5 ml/kg. Thirty minutes after administration, the animal was immersed in a water bath at 22°±1° C. up to the xiphisternum using a stress cage made by Tokyo University, Faculty of Pharmacology, to apply a stress load for 6 hours. After applying the stress load, the rats had the cervical vertebra dislocated to death. Then, the stomach was excised and, spotted and linear erosion and a long diameter of any ulcer were microscopically measured to determine an ulcer index and an inhibition rate.
as §1

[3] = system: gastric juice secretion; experiment: Gastric juice secretion inhibition activity (pyloric ligature); format: in vivo, Wistar strain male rats; conditions: rats, 100 mg/kg p.o.; for inhibition in vivo at 100 mg/kg: Rattus norvegicus, po, read-out: Volume Inhibition Rate
Procedure: A suspension of each test compound in a 5% gum arabic aqueous solution was orally given to Wistar strain male rats (at the age of 7 to 8 weeks, weighing 180 to 250 g; 7-9 rats in the group administered with the test compound; 14-17 rats in the control group) fasted for 24 hours at a dose of 100 mg of the test compound/5 ml/kg. Thirty minutes after administration, pyloric ligature was made under ethereal anesthesia. Four hours thereafter, the stomach was excised under ethereal anesthesia to collect gastric juice. The collected gastric juice was centrifuged (2500 rpm) at 4° C. for 10 minutes. After the supernatant was collected, the amount of the gastric juice and its pH were measured using a pH meter. Furthermore, the amount of free hydrochloric acid and the total acidity were measured with Topfer reagent and phenolphthalein reagent, respectively. Using a part of the gastric juice, pepsin output in the gastric juice was measured using casein as a substrate in a manner similar to the method of Anson et al.
as §1

[4] = Acute toxicity; format: in vivo; conditions: mouse, in vivo, po; mice, 7 days observation, Probit method
Procedure: (§2) A suspension of each test compound in a 5% gum arabic aqueous solution was orally given to ddy strain male mice (at the age of 4 to 5 weeks, weighing 25 to 35 g; 2 to 9 mice in one group). For 7 days after the administration, the mice were observed as to if they were dead or alive. Based on the number of deaths, the LD50 value was determined by the Probit method.

[5] = system: ddy strain male mice; experiment: Acute toxicity; format: in vivo; conditions: 7 days observation
Procedure: as §2

[6] = system: ethanol-induced ulcer; experiment: Antiulcer activity against ethanol-induced ulcer model; format: in vivo, Wistar strain male rats; conditions: rats, 100 mg/kg p.o. 30 min before absolute ethanol 5 ml/kg p.o.; for Ethanol Induced Ulcer Ulcer Index: stomach excised 1 h later; for Ethanol Induced Ulcer Inhibition Rate: vs control group
Procedure: A suspension of each test compound in a 5% gum arabic aqueous solution was orally given to Wistar strain male rats (at the age of 7 to 8 weeks, weighing 180 to 250 g; 5 rats in the group administered with the test compound; 9 rats in the control group) fasted for […] at a dose of 100 mg of any the test compound/5 ml/kg. Thirty minutes after administration, absolute ethanol was further orally administered at a dose of 5 ml/kg. One hour after administration of absolute ethanol, the stomach was excised under ethereal anesthesia and spotted and linear erosion and a long diameter of ulcer were microscopically measured to determine an ulcer index and an inhibition rate.
as §1

[7] = 100 mg/kg p.o. 30 min before 6 h water immersion, vs control group
[8] = 4 h, pyloric ligature, 4 h, vs control group
[9] = pyloric ligature 30 min later, gastric juice collected after 4 h
[10] = pyloric ligature, 4 h, first part of Table 5
[11] = pyloric ligature, 4 h, second part of Table 5

Compound	inhibition in vivo at 100 mg/kg ([1]; vs control group) [%]	Aspirin Induced Ulcer Ulcer Index [1] [mm^2]	inhibition in vivo at 100 mg/kg [2, 7] [%]	Water-Immersion Stress Ulcer Ulcer Index [2] [mm^2]	inhibition in vivo at 100 mg/kg [3, 8] [%]	Volume (gastric juice) [3, 9] [mL]	Acidity ([3]; pyloric ligature, 4 h) [mEq/l]	Free HCl ([3]; pyloric ligature, 4 h) [mEq/l]	Pepsin Activity ([3]; pyloric ligature, 4 h) [units/ml]	Pepsin Output ([3]; pyloric ligature, 4 h) [units/hr]	pH (gastric juice) [3, 10]	LD50 at 168 h [4] [mg/kg]	Acid Output [3, 11] [mcEq/100 g]	Free HCl [3, 11] [mcEq/100 g]	Pepsin Output [3, 11] [mg tyrosine/100 g]	Volume (gastric juice) [3, 11] [ml/100 g]	pH (gastric juice) [3, 11]	Mortality (No. death/No. treated) ([5]; 500 mg/kg p.o)	Mortality (No. death/No. treated) ([5]; 1000 mg/kg p.o)	also measured
Cc1nc2sc3ccccc3n2c1CO [Example 1, 2-Methylimidazo[2,1-b]benzothiazole-3-methanol]	59.4	23.3 ± 5.1	80	4.3 ± 0.9	52.5	2.8 ± 0.4	49.0 ± 5.9	9.4 ± 3.1	90.3 ± 5.9	59.6 ± 6.8	2.94 ± 0.30	3590	–	–	–	–	–	–	–	Mortality (No. death/No. treated) ([5]; 2000 mg/kg p.o): 0/4; Mortality (No. death/No. treated) ([5]; 2828 mg/kg p.o): 1/5; Mortality (No. death/No. treated) ([5]; 4000 mg/kg p.o): 3/5; Mortality (No. death/No. treated) ([5]; 4899 mg/kg p.o): 2/2; Ethanol Induced Ulcer Ulcer Index [6]: 4.9 ± 2.6 mm^2; Ethanol Induced Ulcer Inhibition Rate [6]: 94.3%
Cc1nc2sc3ccccc3n2c1CO.Cl [Example 2, 2-Methylimidazo[2,1-b]benzothiazole-3-methanol hydrochloride]	–	36.0 ± 5.8	–	4.6 ± 1.1	–	2.8 ± 0.4	77.3 ± 4.5	15.8 ± 4.5	91.1 ± 8.3	58.4 ± 5.2	2.43 ± 0.20	2130	–	–	–	–	–	–	–	Aspirin Induced Ulcer Inhibition Rate ([1]; vs control group): 46.1%; Water-Immersion Stress Ulcer Inhibition Rate [2, 7]: 80.3%; Volume Inhibition Rate ([3]; pyloric ligature, 4 h, vs control group): 53.3%; Mortality (No. death/No. treated) ([5]; 1732 mg/kg p.o): 0/5; Mortality (No. death/No. treated) ([5]; 2041 mg/kg p.o): 2/4; Mortality (No. death/No. treated) ([5]; 2236 mg/kg p.o): 3/5; Mortality (No. death/No. treated) ([5]; 2449 mg/kg p.o): 4/5
Cc1nc2sc3ccccc3n2c1C(C)O (stereo not drawn) [Example 4, 3-(1-Hydroxyethyl)-2-methylimidazo[2,1-b]benzothiazole]	88.7	8.0 ± 2.9	69.2	7.3 ± 2.5	–	–	–	–	–	–	–	–	30.8 ± 5.1	8.0 ± 2.9	9.9 ± 1.3	0.69 ± 0.09	2.36 ± 0.21	0/5	0/5	–
Cc1nc2sc3ccccc3n2c1C(C)(C)O [Example 6, 3(α-Hydroxy-1-methyl)ethyl-2-methylimidazo[2,1-b]benzothiazole]	22.3	55.1 ± 8.7	50.6	11.7 ± 4.5	–	–	–	–	–	–	–	–	169.9 ± 38.0	138.6 ± 37.3	23.4	1.90 ± 0.33	1.24 ± 0.07	0/5	0/5	–
CCc1nc2sc3ccccc3n2c1CO [Example 8, 2-Ethylimidazo[2,1-b]benzothiazole-3-methanol]	–	–	50.3	8.1 ± 2.2	–	–	–	–	–	–	–	–	–	–	–	–	–	–	–	Ethanol Induced Ulcer Ulcer Index [6]: 4.1 ± 2.2 mm^2; Ethanol Induced Ulcer Inhibition Rate [6]: 95.2%
Cc1nc2sc3cc(F)ccc3n2c1CO [Example 11, 7-Fluoro-2-methylimidazo[2,1-b]benzothiazole-3-methanol]	51.8	34.2 ± 2.2	54	10.9 ± 4.4	–	–	–	–	–	–	–	–	118.8 ± 37.2	89.1 ± 35.5	16.7 ± 2.9	1.40 ± 0.34	1.58 ± 0.15	0/5	0/5	–
COCc1c(C)nc2sc3ccccc3n12 [Example 12, 2-Methylimidazo[2,1-b]benzothiazole-3-methanol methyl ether]	34.5	49.9 ± 5.4	83.3	2.2 ± 0.4	60.3	2.5 ± 0.1	66.7 ± 4.7	23.2 ± 6.9	90.7 ± 4.1	55.5	2.28 ± 0.26	1770	–	–	–	–	–	–	–	Mortality (No. death/No. treated) ([5]; 1414 mg/kg p.o): 1/5; Mortality (No. death/No. treated) ([5]; 2000 mg/kg p.o): 6/9; Mortality (No. death/No. treated) ([5]; 2828 mg/kg p.o): 6/6
Cc1nc2sc3ccccc3n2c1COC(C)C.Cl [Example 13, 2-Methylimidazo[2,1-b]benzothiazole-3-methanol isopropyl ether hydrochloride]	71	24.4 ± 3.3	–	–	–	–	–	–	–	–	–	–	57.6 ± 16.4	22.3 ± 10.7	13.0 ± 2.3	1.29 ± 0.23	2.70 ± 0.53	0/5	5/5	–
COc1ccc(COCc2c(C)nc3sc4ccccc4n23)cc1 [Example 14, 2-Methylimidazo[2,1-b]benzothiazole-3-methanol (4-methoxy-benzyl) ether]	15	71.5 ± 8.0	39	7.5 ± 2.2	–	–	–	–	–	–	–	–	196.8 ± 38.0	144.9 ± 35.0	22.4 ± 3.8	2.63 ± 0.35	1.42 ± 0.08	0/5	0/5	–
CCNC(=O)OCc1c(C)nc2sc3ccccc3n12 [Example 20, 2-Methylimidazo[2,1-b]benzothiazole 3-methyl ethyl carbamate]	26.2	56.2 ± 6.8	69.7	4.0 ± 1.3	6.3	5.9 ± 0.3	54.5 ± 7.0	26.1 ± 5.5	91.6 ± 1.7	136.0 ± 7.2	1.89 ± 0.12	–	–	–	–	–	–	–	–	–
